Laboratory results taken from PMC9097471, “Development of Selective Phosphatidylinositol 5-Phosphate 4-Kinase γ Inhibitors with a Non-ATP-competitive, Allosteric Binding Mode” (Journal of Medicinal Chemistry, 2022).

Columns and labels:
[1] = molecular target: T1, PI5P4Kβ (Homo sapiens, UniProt P78356); assay: Thermal shift assay; conditions: read-out: ΔTm PI5P4Kβ, thermal shift, compound 63 μM
T1 sequence (P78356 1-416): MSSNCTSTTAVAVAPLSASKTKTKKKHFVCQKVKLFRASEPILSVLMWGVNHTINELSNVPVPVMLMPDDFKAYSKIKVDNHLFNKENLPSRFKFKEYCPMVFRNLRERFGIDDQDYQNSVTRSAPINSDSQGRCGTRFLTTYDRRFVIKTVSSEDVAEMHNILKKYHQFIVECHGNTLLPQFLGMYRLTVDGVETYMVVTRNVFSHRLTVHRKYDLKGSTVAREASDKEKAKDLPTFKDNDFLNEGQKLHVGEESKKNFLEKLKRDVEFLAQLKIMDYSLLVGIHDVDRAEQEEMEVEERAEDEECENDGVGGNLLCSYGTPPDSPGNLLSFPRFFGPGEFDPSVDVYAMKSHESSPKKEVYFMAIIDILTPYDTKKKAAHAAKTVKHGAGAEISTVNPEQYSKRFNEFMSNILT

[2] = molecular target: ERK1 (Homo sapiens, UniProt P27361); assay: Kinase panel, radiometric 33P filter binding; conditions: read-out: % activity remaining
[3] = molecular target: PKCa (Homo sapiens, UniProt P17252); assay: Kinase panel, radiometric 33P filter binding; conditions: read-out: % activity remaining
Text: (§1) filter binding assay using 33P-g-ATPat the MRC PPU International Centre for Kinase Profiling, University of

[4] = molecular target: PKCγ (Homo sapiens, UniProt P05129); assay: Kinase panel, radiometric 33P filter binding; conditions: read-out: % activity remaining
Text: as §1

[5] = molecular target: PRAK (Homo sapiens, UniProt Q8IW41); assay: Kinase panel, radiometric 33P filter binding; conditions: read-out: % activity remaining
Text: as §1

[6] = molecular target: CAMKKb (Homo sapiens, UniProt Q96RR4); assay: Kinase panel, radiometric 33P filter binding; conditions: read-out: % activity remaining
CAMKKb, sequence (Q96RR4 whole entry): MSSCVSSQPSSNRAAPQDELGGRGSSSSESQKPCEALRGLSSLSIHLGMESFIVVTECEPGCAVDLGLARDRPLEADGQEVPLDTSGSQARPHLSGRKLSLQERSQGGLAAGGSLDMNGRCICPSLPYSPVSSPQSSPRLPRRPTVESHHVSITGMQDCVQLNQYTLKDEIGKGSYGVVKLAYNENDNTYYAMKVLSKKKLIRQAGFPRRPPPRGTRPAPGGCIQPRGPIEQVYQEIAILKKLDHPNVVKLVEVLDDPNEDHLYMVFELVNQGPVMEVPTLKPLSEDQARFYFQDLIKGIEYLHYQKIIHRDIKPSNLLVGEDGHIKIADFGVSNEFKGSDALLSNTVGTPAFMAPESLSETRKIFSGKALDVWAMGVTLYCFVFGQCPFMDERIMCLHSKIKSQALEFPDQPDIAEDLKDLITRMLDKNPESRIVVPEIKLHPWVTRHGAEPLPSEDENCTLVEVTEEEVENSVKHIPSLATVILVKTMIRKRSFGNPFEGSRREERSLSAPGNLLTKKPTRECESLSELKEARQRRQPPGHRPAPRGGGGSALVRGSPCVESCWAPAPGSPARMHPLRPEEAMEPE
Text: as §1

[7] = molecular target: TSSK1 (Homo sapiens, UniProt Q9BXA7); assay: Kinase panel, radiometric 33P filter binding; conditions: read-out: % activity remaining
TSSK1, sequence (Q9BXA7 whole entry): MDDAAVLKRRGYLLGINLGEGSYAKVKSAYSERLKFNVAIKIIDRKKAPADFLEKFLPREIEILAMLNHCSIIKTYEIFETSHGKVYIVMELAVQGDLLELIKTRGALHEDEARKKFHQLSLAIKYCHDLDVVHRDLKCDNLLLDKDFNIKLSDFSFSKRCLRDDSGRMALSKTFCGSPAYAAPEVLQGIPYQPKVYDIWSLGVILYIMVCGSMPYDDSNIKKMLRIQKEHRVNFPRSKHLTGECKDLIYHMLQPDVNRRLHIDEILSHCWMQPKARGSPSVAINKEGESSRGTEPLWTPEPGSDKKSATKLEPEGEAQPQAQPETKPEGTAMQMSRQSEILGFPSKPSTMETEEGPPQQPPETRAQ
Text: as §1

[8] = molecular target: WNK1 (Homo sapiens, UniProt Q9H4A3); assay: Kinase panel, radiometric 33P filter binding; conditions: read-out: % activity remaining
WNK1, sequence (Q9H4A3 whole entry): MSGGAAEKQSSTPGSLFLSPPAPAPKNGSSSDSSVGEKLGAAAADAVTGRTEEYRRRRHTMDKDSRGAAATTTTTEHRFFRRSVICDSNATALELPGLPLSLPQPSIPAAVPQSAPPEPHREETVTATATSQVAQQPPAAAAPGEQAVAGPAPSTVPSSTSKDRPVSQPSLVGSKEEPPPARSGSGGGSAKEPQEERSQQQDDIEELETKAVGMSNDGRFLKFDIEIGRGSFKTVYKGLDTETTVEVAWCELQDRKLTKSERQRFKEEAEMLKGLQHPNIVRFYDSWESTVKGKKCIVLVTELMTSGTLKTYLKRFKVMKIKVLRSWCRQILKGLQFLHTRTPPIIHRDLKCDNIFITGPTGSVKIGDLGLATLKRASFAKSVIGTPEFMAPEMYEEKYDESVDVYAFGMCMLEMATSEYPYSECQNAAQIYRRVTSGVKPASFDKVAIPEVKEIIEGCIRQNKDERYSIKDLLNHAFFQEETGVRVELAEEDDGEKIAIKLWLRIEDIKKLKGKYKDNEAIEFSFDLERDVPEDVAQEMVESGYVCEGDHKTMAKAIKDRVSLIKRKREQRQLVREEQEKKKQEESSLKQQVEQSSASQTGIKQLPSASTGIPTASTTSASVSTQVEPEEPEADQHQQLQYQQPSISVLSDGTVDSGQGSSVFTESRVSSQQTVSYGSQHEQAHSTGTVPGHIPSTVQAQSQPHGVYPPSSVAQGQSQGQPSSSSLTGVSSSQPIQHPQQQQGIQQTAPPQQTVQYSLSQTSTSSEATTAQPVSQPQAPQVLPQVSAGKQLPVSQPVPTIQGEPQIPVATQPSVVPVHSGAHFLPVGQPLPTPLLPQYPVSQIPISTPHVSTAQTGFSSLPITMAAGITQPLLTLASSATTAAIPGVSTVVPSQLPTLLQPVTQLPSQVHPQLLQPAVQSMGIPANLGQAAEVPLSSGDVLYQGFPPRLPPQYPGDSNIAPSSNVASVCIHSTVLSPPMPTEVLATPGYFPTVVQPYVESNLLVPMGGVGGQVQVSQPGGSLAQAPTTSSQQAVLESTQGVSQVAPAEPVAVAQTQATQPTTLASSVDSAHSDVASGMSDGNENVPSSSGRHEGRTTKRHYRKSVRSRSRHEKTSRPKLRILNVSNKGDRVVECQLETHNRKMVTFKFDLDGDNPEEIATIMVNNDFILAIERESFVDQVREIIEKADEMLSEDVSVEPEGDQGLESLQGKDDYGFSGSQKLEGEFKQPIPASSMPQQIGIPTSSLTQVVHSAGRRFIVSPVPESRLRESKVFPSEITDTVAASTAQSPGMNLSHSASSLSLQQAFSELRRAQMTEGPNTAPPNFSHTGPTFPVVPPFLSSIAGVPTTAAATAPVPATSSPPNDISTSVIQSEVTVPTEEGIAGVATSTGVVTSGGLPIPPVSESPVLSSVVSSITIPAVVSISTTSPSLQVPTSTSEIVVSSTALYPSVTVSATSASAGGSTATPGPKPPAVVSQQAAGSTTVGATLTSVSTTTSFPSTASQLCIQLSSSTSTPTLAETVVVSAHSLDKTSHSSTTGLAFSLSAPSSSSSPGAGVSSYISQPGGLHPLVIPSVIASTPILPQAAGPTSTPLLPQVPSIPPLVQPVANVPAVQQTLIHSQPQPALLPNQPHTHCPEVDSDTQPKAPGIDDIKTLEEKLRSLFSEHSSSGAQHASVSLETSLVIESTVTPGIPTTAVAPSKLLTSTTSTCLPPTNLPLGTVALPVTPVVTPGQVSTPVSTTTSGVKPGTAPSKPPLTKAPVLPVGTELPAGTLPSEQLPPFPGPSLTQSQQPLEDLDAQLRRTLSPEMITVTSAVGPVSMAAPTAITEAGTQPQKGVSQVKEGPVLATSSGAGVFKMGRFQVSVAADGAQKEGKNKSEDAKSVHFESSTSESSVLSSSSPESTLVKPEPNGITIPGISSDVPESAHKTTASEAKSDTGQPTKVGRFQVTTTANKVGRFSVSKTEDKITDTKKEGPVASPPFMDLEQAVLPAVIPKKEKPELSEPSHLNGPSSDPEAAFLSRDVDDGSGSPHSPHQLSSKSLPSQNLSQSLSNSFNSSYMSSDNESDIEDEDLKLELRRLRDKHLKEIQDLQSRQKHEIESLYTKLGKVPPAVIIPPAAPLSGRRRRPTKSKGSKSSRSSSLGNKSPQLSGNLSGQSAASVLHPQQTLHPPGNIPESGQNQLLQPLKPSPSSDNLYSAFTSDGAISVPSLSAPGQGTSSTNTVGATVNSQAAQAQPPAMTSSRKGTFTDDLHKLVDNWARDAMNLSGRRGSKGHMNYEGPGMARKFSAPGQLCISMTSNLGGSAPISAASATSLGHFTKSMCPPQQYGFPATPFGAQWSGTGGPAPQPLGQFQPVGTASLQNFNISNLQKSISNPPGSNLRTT
Text: as §1

[9] = molecular target: SYK (Homo sapiens, UniProt P43405); assay: Kinase panel, radiometric 33P filter binding; conditions: read-out: % activity remaining
[10] = molecular target: EPH-B1 (Homo sapiens, UniProt P54762); assay: Kinase panel, radiometric 33P filter binding; conditions: read-out: % activity remaining
Text: as §1

[11] = molecular target: FGF-R1 (Homo sapiens, UniProt P11362); assay: Kinase panel, radiometric 33P filter binding; conditions: read-out: % activity remaining
Text: as §1

[12] = molecular target: DDR2 (Homo sapiens, UniProt Q16832); assay: Kinase panel, radiometric 33P filter binding; conditions: read-out: % activity remaining
DDR2, sequence (Q16832 22-855): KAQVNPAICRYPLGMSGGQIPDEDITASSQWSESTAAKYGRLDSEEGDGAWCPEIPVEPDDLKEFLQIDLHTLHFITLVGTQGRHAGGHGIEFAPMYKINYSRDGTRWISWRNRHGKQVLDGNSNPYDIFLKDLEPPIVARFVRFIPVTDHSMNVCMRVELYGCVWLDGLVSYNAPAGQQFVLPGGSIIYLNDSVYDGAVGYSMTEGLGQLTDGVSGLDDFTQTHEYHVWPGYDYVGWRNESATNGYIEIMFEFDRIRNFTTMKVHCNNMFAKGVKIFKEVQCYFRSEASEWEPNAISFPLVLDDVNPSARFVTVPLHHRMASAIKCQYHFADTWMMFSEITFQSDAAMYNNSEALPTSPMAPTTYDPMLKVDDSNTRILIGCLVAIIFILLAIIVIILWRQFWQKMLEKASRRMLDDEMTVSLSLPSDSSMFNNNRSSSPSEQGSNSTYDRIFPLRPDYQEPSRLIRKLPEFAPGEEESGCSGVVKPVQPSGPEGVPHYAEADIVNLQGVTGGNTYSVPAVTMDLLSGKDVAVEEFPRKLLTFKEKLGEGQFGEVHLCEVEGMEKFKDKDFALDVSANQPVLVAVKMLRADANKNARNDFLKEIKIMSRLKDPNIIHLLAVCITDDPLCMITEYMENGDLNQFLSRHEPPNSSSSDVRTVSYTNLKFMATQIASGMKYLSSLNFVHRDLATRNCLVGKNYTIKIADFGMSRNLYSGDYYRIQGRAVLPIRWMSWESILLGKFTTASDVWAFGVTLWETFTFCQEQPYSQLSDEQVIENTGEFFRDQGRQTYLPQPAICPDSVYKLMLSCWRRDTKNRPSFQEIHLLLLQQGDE
Text: as §1

Row | SMILES | ΔTm at 63 µM [1] | remaining activity at 10 µM [2] | remaining activity at 10 µM [3] | remaining activity at 10 µM [4] | remaining activity at 10 µM [5] | remaining activity at 10 µM [6] | remaining activity at 10 µM [7] | remaining activity at 10 µM [8] | remaining activity at 10 µM [9] | remaining activity at 10 µM [10] | remaining activity at 10 µM [11] | remaining activity at 10 µM [12]
1 | FC(F)(F)c1ccccc1-c1nc(NCc2cccs2)c2ccccc2n1 [Compound 1, NIH-12848, reference compound] | 0.6 ± 0.3 °C | – | – | – | – | – | – | – | – | – | – | –
2 | CC(C)c1ccccc1-c1nc(NCc2ccccn2)c2c(ccn2C)n1 [Compound 40] | – | 111% | 118% | 77% | 98% | 99% | 96% | 112% | 91% | 95% | 92% | 90%
